Results as given in ChEMBL document CHEMBL2169791, “Strategies for the design of HIV-1 non-nucleoside reverse transcriptase inhibitors: lessons from the development of seven representative paradigms” (J Med Chem, 2012).
pIC50: −log10 of the molar value. Converted amounts (≈) assume the structure as drawn. Blank lines part the entries; values can stand above or below the molecule they belong to.

Tests used:
[1] = Half life in HIV1-infected patient; assay type: ADME, organism-based; settings: human, in vivo
[2] = system: Human immunodeficiency virus 1; test: Antiviral activity against HIV1 infected in MT4 cells; assay type: functional, organism-based; settings: Human immunodeficiency virus 1, MT4
[3] = system: Human immunodeficiency virus 1; test: Antiviral activity against wild type HIV1; assay type: functional, organism-based
[4] = system: Human immunodeficiency virus 1; test: Antiviral activity against HIV1 harboring reverse transcriptase L100I mutant; assay type: functional, organism-based
[5] = system: Human immunodeficiency virus 1; test: Antiviral activity against HIV1 harboring reverse transcriptase K103N mutant; assay type: functional, organism-based
[6] = system: Human immunodeficiency virus 1; test: Antiviral activity against HIV1 harboring reverse transcriptase K103N/Y181C mutant; assay type: functional, organism-based
[7] = system: Human immunodeficiency virus 1; test: Antiviral activity against HIV1 harboring reverse transcriptase Y188L mutant; assay type: functional, organism-based
[8] = system: Human immunodeficiency virus 1; test: Antiviral activity against HIV1 harboring reverse transcriptase Y181C mutant; assay type: functional, organism-based
[9] = system: Human immunodeficiency virus 1; test: Antiviral activity against HIV1 harboring reverse transcriptase L100I/K103N mutant; assay type: functional, organism-based
[10] = system: Human immunodeficiency virus 1; test: Antiviral activity against HIV1 3B infected in MT4 cells; assay type: functional, organism-based; settings: Human immunodeficiency virus 1, 3B
[11] = Selectivity index, ratio of cytotoxic concentration for human MT4 cells to IC50 for HIV1 3B; assay type: toxicity, cell-based; settings: read-out: Selectivity Index
[12] = system: Human immunodeficiency virus 1; test: Ratio of nevirapine EC50 to compound EC50 for HIV1; assay type: functional
[13] = Half life in plasma; assay type: ADME, cell-free
[14] = system: Human immunodeficiency virus 1; test: Antiviral activity against HIV1 infected in human assessed as log reduction in viral load at 800 mg administered QD for 7 days measured on day 8 relative to placebo-control; assay type: functional
[15] = system: Human immunodeficiency virus 1; test: Antiviral activity against HIV1 infected in human assessed as log reduction in viral load at 750 mg administered QD for 7 days measured on day 8 relative to placebo-control; assay type: functional
[16] = system: Human immunodeficiency virus 1; test: Antiviral activity against HIV1 infected in human assessed as log reduction in viral load at 500 mg administered QD for 7 days measured on day 8 relative to placebo-control; assay type: functional
[17] = system: Human immunodeficiency virus 1; test: Antiviral activity against HIV1 3B infected in MT4 cells assessed as inhibition of virus-induced cytopathic effect after 5 days by MTT assay; assay type: functional, organism-based; settings: Human immunodeficiency virus 1, 3B, MT4, 120 h
[18] = system: Human immunodeficiency virus 1; test: Antiviral activity against HIV1 infected in human assessed as log reduction in viral load at 25 to 150 mg administered QD for 7 days measured on day 8 relative to placebo-control; assay type: functional
[19] = Half life in HIV-infected patient plasma; assay type: ADME, organism-based; settings: human
[20] = system: Human immunodeficiency virus 1; test: Antiviral activity against HIV1 infected in human assessed as viral copies at 25 to 150 mg; assay type: functional

half-life [1]: 11 h
Structure (SMILES): O=C(CSc1nnc(Br)n1-c1ccc(C2CC2)c2ccccc12)Nc1ccc(C(=O)[O-])cc1Cl.[K+]

pIC50 [2]: 9.30
Structure (SMILES): Cc1cc(S(N)(=O)=O)ccc1NC(=O)COc1ccc(Cl)cc1C(=O)c1cc(F)cc(C(F)(F)F)c1

IC50 [2]: 10 µg/mL
Structure (SMILES): CCN(CC)CCOc1ccc(NC(=O)COc2ccccc2C(=O)c2ccc(OC)cc2)cc1

Structure (SMILES): Cc1cc(C#N)cc(C)c1Oc1nc(Nc2ccc(C#N)cc2)ncc1Br
pIC50 [3]: 8.85 | pIC50 [4]: 8.18 | pIC50 [5]: 8.85 | pIC50 [6]: 7.60 | pIC50 [7]: 8.23 | pIC50 [8]: 7.66 | pIC50 [9]: 7.31

pIC50 [10]: 7.55
Structure (SMILES): CC(C)=CCN1Cc2cccc3[nH]c(=S)n(c23)C[C@@H]1C
selectivity ratio [11]: 31100

Structure (SMILES): Cc1cc(C#N)cc(C)c1Oc1ccnc(Nc2ccc(C#N)cc2)n1
pIC50 [3]: 8.96 | pIC50 [4]: 7.14 | pIC50 [5]: 8.57 | pIC50 [6]: 7.03 | pIC50 [7]: 7.72 | pIC50 [8]: 7.43 | pIC50 [9]: 6.10

EC50 [3]: 0.00026 µg/mL (≈ 0.589 nM)
Structure (SMILES): CCN1c2ncc(CCOc3cc[n+]([O-])c4ccccc34)cc2C(=O)N(C)c2cccnc21 [BILR 355]
Ratio EC50 [12]: >10

Structure (SMILES): Cc1cc(C#N)cc(C)c1Oc1nc(Nc2ccc(C#N)cc2)nc(N)c1Br [ETRAVIRINE]
pIC50 [3]: > 8.00 | half-life [13]: 30 h | pIC50 [6]: 8.37 | pIC50 [9]: 7.72

Structure (SMILES): CO[P@](=O)(c1cc(C)cc(/C=C/C#N)c1)c1c(C(N)=O)[nH]c2ccc(Cl)cc12 [FOSDEVIRINE]
FC [14]: 2.1

Structure (SMILES): CCc1nn(CCO)c(CC)c1Oc1cc(C#N)cc(C#N)c1 [LERSIVIRINE]
FC [15]: 2 | FC [16]: 1.9

Structure (SMILES): CC(=O)c1ccc(C)cc1NC(C(N)=O)c1c(Cl)cccc1Cl (centres undefined) [LOVIRIDE]
pIC50 [17]: 7.89

half-life [19]: 48 h
Structure (SMILES): Cc1cc(/C=C/C#N)cc(C)c1Nc1ccnc(Nc2ccc(C#N)cc2)n1 [RILPIVIRINE]
FC [18]: 1.199 | Activity [20]: <50 mL⁻¹

pIC50 [10]: 8.82
Structure (SMILES): Cc1cn([C@H]2C[C@H](N=[N+]=[N-])[C@@H](CO)O2)c(=O)[nH]c1=O [ZIDOVUDINE]
selectivity ratio [11]: 6200
